The source of these data is US5348965A, “N-substituted azaheterocyclic carboxylic acids” (Novo Nordisk A/S, priority 1991, dated 1994).

Each structure is given as a SMILES string. Structures can show the parent of a compound that is named as a salt.

One assay deals with GABA uptake.
Test: not given
The following applies: from the synaptic cleft into presynaptic nerve terminals and glial cells; cited from earlier work.
`O=C(O)C1CCCNC1` (centres unmarked) [3-piperidinecarboxylic acid]: the “inhibition of GABA uptake” value is “potent inhibitor of GABA uptake”.

The test system of another assay is GABA uptake.
Test: not given
The following applies: oral; Yunger et al., J. Pharm. Exp. Ther. 1984, 228, 109; cited from earlier work.
`O=C(O)C1CCCN(CCC=C(c2ccccc2)c2ccccc2)C1` (centres unmarked) [SK&F 89976A, N-(4,4-diphenyl-3-buten-1-yl)nipecotic acid]: the “orally active inhibition of GABA uptake” value is “orally active inhibitors of GABA uptake”. Regarding `O=C(O)C1=CCCN(CCC=C(c2ccccc2)c2ccccc2)C1` [SK&F 100330A, N-(4,4-diphenyl-3-buten-1-yl)guvacine], the “orally active inhibition of GABA uptake” value is given as “orally active inhibitors of GABA uptake”. Take `O=C(O)CC1CCN(CCC=C(c2ccccc2)c2ccccc2)C1` (stereo not drawn) [SK&F 100561, N-(4,4-diphenyl-3-buten-1-yl)-homo-β-proline]: the “orally active inhibition of GABA uptake” value is reported as “orally active inhibitors of GABA uptake”.

For the molecule `O=C(O)C1CCCN(CCC=C(c2ccccc2)c2cccs2)C1` (centres unmarked) [SK&F 100604J, N-(4-phenyl-4-(2-thienyl)-3-buten-1-yl)nipecotic acid], the “orally active inhibition of GABA uptake” value is recorded as “orally active inhibitors of GABA uptake”.

In another assay the test system is [^3 H]-GABA uptake. The assay is described as follows: in vitro inhibition of [^3 H]-GABA uptake (method of Fjalland). The following applies: Male wistar rat cortical tissue homogenate; tris HCl buffer pH 7.5; 60 minutes at 30° C. Type of assay: biochemical. The method, then: Values for in vitro inhibition of [^3 H]-GABA uptake for the invention compounds were assessed essentially by the method of Fjalland (Acta Pharmacol. Toxicol. 1978, 42, 73-76). Male wistar rat cortical tissue was gently homogenized by hand using a glass/PTFE homogenizer in 10 volumes of 0.32 M sucrose. Incubation was performed in a 40 mM tris HCl buffer (pH 7.5 at 30° C.) containing […], 4 mM MgSO4, […] and 10 mM glucose, for 60 minutes at 30° C. Values for inhibition of GABA uptake for some representative compounds are recorded in Table I.
A word on the IC50: it is the concentration that gives 50% inhibition. Higher therefore signals weaker potency in that assay. Molecule `O=C(O)[C@@H]1CCCN(CCOCCN2c3ccccc3CCc3ccccc32)C1` [Example 1, (R)-N-(2-(2-(10,11-Dihydro-5H-dibenz[b,f]azepin-5-yl)ethoxy)ethyl)-3-piperidinecarboxylic acid hydrochloride] had an IC50 of 222 nM. For the molecule `O=C(O)[C@@H]1CCCN(CCOCCN2c3ccccc3Sc3ccccc32)C1` [Example 2a, (R)-N-(2-(2-(10H-Phenothiazin-10-yl)ethoxy)ethyl)-3-piperidinecarboxylic acid hydrochloride], the IC50 was found to be 306 nM. The molecule `O=C(O)[C@@H]1CCCN(CCOCCN2c3ccccc3Sc3ccc(Cl)cc32)C1` [Example 2c, (R)-N-(2-(2-(2-Chloro-10H-phenothiazin-10-yl)ethoxy)ethyl)-3-piperidinecarboxylic acid hydrochloride] registered an IC50 of 119 nM. This IC50 is about 2.6-fold lower than that of the molecule before. Same read-out and setting: then `O=C(O)[C@@H]1CCCN(CCOCC=C2c3ccccc3CCc3ccccc32)C1` [Example 3, (R)-N-(2-(2-(10,11-Dihydro-5H-dibenzo[a,d]cyclohepten-5-ylidene)ethoxy)ethyl)-3-piperidinecarboxylic acid hydrochloride], with 754 nM; and `O=C(O)[C@@H]1CCCN(CCCOCC=C2c3ccccc3CCc3ccccc32)C1` [Example 5, (R)-N-(3-(2-(10,11-Dihydro-5H-dibenzo[a,d]cyclohepten-5-ylidene)ethoxy)-1-propyl)-3-piperidinecarboxylic acid hydrochloride], with 900 nM; and `O=C(O)[C@@H]1CCCN(CCON=C2c3ccccc3CCc3ccccc32)C1` [Example 7, (R)-N-(2-(((10,11-Dihydro-5H-dibenzo[a,d]cyclohepten-5-ylidene)amino)oxy)ethyl)-3-piperidinecarboxylic acid hydrochloride], with 1130 nM.
